Laboratory results published in patent US20140148432A1, “Compounds for the Treatment of Neurological Disorders” (priority 2009, published 2014).
Read-outs that look alike come from different tables or passages of the source.

What was measured:
[1] = target: T1, human ether-a-go-go potassium channel (hERG) expressed in HEK293 cells (Homo sapiens, UniProt Q12809); assay: hERG binding, displacement of [3H]-astemizole; conditions: 10 μM test compound, 1.5 nM [3H]-astemizole, duplicate
T1 construct: expressed in transfected cells; host or cells: HEK293 cells
T1 sequence (Q12809 whole entry): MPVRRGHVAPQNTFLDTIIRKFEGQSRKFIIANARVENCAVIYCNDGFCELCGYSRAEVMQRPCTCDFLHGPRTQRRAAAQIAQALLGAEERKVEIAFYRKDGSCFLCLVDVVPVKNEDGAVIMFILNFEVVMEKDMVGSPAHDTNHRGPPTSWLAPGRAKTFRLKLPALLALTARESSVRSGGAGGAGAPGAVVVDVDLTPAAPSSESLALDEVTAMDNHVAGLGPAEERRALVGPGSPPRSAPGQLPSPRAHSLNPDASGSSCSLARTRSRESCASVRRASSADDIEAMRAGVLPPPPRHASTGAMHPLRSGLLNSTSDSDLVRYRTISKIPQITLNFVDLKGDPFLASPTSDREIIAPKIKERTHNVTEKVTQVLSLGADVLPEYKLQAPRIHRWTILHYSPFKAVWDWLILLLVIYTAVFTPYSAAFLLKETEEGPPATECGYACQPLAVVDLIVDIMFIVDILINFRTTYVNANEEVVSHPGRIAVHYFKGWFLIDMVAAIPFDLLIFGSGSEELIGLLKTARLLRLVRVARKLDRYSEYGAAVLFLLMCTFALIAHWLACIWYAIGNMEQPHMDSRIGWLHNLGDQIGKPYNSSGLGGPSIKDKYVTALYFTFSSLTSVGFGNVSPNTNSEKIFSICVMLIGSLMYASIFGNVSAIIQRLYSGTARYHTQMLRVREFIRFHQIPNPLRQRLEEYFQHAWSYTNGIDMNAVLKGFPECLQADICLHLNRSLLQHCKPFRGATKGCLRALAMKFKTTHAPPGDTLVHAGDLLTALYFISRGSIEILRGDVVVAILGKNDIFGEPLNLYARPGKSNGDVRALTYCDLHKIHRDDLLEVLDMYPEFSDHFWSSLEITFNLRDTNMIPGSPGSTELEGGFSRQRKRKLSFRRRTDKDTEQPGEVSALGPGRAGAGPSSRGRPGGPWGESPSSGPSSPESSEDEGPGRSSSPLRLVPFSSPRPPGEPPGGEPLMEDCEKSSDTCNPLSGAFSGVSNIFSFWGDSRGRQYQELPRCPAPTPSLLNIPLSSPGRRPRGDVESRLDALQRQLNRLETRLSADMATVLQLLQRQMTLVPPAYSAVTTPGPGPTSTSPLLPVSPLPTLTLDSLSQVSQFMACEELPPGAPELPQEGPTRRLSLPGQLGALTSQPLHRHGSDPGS
Experimental: (§1) Binding to the human ether-a-go-go potassium channel (hERG) expressed in HEK293 cells by displacement of 1.5 nM [3H]-astemizole. Each result represents the average of displacement binding experiments done in duplicate at 10 uM of the test compound. Percent displacement of 0.25 nM [3H]-prazosin from Wistar rat brain membranes. Each result represents the average of displacement binding experiments done in duplicate at 3 μM of the test compound.

GluN1/GluN2B receptors [2] = target: GluN1/GluN2B receptors (Rattus norvegicus, UniProt P35439+Q00960); assay: IC50 of GluN1/GluN2B receptors expressed in Xenopus oocytes (two electrode voltage-clamp), rat; format: cell-based; conditions: pH 7.4, 50 μM glutamate, 30 μM glycine
Experimental: (§2) Stage V and VI oocytes were surgically removed from the ovaries of large, well-fed and healthy Xenopus laevis anesthetized with 3-amino-benzoic acid ethyl ester (3 gm/l). Clusters of isolated oocytes were incubated with 292 U/ml Worthington (Freehold, N.J.) type IV collagenase or 1.3 mg/ml collagenase (Life Technologies, Gaithersburg, Md.; 17018-029) for 2 hr in Ca^2+-free solution comprised of (in mM) 115 NaCl, 2.5 KCl, and 10 HEPES, pH 7.5, with slow agitation to remove the follicular cell layer. Oocytes were then washed in the same solution supplemented with 1.8 mM CaCl2 and maintained in Barth's solution comprised of (in mM): 88 NaCl, 1 KCl, 2.4 NaHCO3, 10 HEPES, 0.82 MgSO4, 0.33 Ca(NO3)2, and 0.91 CaCl2 and supplemented with 100 μg/ml gentamycin, 10 μg/ml streptomycin, and 10 μg/ml penicillin. Oocytes were manually defolliculated and injected within 24 hrs of isolation with 3-5 ng of GluN1 subunit cRNA and 7-10 ng of GluN2 cRNA subunit in a 50 nl volume, and incubated in Barth's solution at 18° C. for 2-7 d. Glass injection pipettes had tip sizes ranging from 10-20 microns, and were backfilled with mineral oil. cRNA was synthesized from linearized template cDNA for rat glutamate receptor subunits according to manufacturer specifications (Ambion).
(§3) Two electrode voltage-clamp recordings were made 2-7 days post-injection. Oocytes were placed in a dual-track plexiglass recording chamber with a single perfusion line that splits in a Y-configuration to perfuse two oocytes. Dual recordings were made at room temperature (23° C.) using two Warner 00725B two-electrode voltage clamp amplifiers, arranged as recommended by the manufacturer. Glass microelectrodes (1-10 Megaohms) were filled with 300 mM KCl (voltage electrode) or 3 M KCl (current electrode). The bath clamps communicated across silver chloride wires placed into each side of the recording chamber, both of which were assumed to be at a reference potential of 0 mV. Oocytes were perfused with a solution comprised of (in mM) 90 NaCl, 1 KCl, 10 HEPES, […] and 0.5 BaCl2; pH was adjusted by addition of 1-3 M NaOH or HCl. Oocytes were recorded under voltage clamp at −40 mV. Final concentrations for glutamate and glycine were 50 μM and 30 μM, respectively. Concentration-response curves for experimental compounds were obtained by applying in successive fashion maximal glutamate/glycine, followed by glutamate/glycine plus variable concentrations of experimental compounds. Dose response curves consisting of 4 to 8 concentrations were obtained in this manner. The baseline leak current at −40 mV was measured before and after recording, and the full recording linearly corrected for any change in leak current. The level of inhibition by applied experimental compounds was expressed as a percent of the initial glutamate response, and averaged together across oocytes from multiple experiments. Results were pooled, and the average percent responses at antagonist concentrations were fit by the equation,
Percent Response=(100−minimum)/(1+([conc]/IC50)^nH)+minimum
where minimum is the residual percent response in saturating concentration of the experimental compounds, IC50 is the concentration of antagonist that causes half of the achievable inhibition, and nH is a slope factor describing steepness of the inhibition curve. Minimum was constrained to be greater than or equal to 0.
Recordings were made at pH 6.9, pH 7.4, and pH 7.6. The pH Boost ratio calculated by dividing the IC50 measured at pH 7.6 by the IC50 measured at pH 6.9.

[3] = target: GluN1/GluN2A subtype of NMDA receptors (Rattus norvegicus, UniProt Q00959); assay: NMDA receptor subunit selectivity, GluN1/GluN2A in Xenopus oocytes; format: cell-based; conditions: 2 min; 10 μM antagonist with 50 μM glutamate and 30 μM glycine, two min; agonists alone = 100%; read-out: GluN2A % Current Remaining
Sequence of GluN1/GluN2A subtype of NMDA receptors (Q00959 23-1464, other chains not shown): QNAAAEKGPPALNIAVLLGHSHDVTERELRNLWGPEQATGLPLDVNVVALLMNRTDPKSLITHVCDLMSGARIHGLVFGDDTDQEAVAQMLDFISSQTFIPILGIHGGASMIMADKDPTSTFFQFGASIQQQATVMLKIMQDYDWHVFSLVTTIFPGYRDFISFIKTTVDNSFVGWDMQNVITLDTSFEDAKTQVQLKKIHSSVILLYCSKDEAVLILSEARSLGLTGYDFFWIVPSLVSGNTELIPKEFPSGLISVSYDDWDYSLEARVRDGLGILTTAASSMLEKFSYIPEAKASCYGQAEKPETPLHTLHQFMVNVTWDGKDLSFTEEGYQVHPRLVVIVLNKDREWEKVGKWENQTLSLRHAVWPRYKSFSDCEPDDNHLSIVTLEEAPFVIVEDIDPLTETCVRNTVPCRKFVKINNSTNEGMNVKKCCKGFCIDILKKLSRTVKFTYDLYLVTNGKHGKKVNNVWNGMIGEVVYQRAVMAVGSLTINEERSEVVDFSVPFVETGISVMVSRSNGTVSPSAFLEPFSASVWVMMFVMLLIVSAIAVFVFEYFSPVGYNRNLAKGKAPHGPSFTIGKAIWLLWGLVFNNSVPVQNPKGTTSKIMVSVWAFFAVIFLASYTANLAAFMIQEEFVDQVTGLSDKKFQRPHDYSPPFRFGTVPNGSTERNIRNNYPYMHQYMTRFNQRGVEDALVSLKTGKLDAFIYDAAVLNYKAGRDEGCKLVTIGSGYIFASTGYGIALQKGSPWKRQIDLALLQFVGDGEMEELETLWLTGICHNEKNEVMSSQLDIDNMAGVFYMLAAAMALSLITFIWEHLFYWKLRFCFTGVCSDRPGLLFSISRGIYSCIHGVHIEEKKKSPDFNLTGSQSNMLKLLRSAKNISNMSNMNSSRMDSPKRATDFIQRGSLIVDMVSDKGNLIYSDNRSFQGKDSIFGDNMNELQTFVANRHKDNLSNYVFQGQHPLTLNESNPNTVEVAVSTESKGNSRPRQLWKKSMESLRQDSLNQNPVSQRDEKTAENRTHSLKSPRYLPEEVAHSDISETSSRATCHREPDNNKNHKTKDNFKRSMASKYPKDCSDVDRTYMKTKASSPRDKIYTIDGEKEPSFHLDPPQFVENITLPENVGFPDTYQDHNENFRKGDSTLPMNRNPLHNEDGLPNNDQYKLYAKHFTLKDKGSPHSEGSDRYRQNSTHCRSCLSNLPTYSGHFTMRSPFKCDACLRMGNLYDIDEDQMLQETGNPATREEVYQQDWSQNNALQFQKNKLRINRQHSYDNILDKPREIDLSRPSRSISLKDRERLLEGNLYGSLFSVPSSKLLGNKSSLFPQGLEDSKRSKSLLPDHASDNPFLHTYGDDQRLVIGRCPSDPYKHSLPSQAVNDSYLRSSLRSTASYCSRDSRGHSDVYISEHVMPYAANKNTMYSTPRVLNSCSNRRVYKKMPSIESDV
Experimental: as §2, §3
(§4) GluN1/GluN2A and GluN1/GluN2D subtype of NMDA receptors were expressed in Xenopus laevis as described in Example 13. Here, a 10 μM concentration of the antagonist was perfused with 50 μM glutamate and 30 μM glycine onto the oocyte for two min and the remaining current in the presence of the antagonist was compared to the maximal current obtained with 50 μM glutamate and 30 μM glycine alone (defined as 100%).

[4] = target: GluN1/GluN2D subtype of NMDA receptors (Rattus norvegicus, UniProt Q62645); assay: NMDA receptor subunit selectivity, GluN1/GluN2D in Xenopus oocytes; format: cell-based; conditions: 2 min; 10 μM antagonist with 50 μM glutamate and 30 μM glycine, two min; agonists alone = 100%; read-out: GluN2D % Current Remaining
Sequence of GluN1/GluN2D subtype of NMDA receptors (Q62645 28-1323, other chains not shown): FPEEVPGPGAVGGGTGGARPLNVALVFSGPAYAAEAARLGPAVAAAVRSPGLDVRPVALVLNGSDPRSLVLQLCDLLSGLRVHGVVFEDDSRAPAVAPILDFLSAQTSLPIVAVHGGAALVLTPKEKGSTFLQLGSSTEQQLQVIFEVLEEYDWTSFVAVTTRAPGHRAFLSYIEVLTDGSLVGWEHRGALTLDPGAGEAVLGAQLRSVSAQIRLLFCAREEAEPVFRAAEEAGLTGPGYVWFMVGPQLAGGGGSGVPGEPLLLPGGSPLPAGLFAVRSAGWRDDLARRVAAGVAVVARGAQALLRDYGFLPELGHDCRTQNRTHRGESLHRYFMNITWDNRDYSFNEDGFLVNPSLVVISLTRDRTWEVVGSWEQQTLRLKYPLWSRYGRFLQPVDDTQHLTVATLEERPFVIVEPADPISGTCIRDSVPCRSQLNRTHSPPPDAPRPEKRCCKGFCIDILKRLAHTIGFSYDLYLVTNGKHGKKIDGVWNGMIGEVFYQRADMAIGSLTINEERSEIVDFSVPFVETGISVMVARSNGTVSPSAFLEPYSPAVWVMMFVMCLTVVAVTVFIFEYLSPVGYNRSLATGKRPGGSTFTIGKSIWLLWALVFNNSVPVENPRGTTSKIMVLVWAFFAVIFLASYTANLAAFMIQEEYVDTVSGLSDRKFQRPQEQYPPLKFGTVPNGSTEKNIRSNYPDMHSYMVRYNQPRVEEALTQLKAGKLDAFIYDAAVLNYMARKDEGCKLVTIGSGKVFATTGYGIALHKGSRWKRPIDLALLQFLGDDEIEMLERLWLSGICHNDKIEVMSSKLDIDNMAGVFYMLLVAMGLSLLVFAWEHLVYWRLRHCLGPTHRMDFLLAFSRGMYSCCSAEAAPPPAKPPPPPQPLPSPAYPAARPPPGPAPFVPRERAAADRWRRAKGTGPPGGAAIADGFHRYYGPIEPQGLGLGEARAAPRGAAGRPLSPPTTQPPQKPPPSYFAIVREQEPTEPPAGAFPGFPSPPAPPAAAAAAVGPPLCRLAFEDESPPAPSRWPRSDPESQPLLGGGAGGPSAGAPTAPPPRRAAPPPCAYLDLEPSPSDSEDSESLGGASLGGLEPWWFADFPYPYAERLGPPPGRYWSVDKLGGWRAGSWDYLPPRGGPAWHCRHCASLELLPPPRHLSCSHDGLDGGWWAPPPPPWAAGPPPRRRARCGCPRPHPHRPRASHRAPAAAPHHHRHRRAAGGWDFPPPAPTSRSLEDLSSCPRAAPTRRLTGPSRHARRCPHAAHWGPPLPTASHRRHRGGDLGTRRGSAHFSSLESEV
Experimental: as §2, §3, §4

GluN1/GluN2B receptors [5] = target: GluN1/GluN2B receptors (Homo sapiens, UniProt Q05586+Q13224); assay: IC50 of GluN1/GluN2B receptors expressed in Xenopus oocytes (two electrode voltage-clamp), human; format: cell-based; conditions: for Human pH Boost Ratio (IC50 pH 7.6/IC50 pH 6.9): IC50 at pH 7.6 divided by IC50 at pH 6.9; for IC50: 30 μM glycine
α1-Adrenergic = α1-Adrenergic binding, displacement of [3H]-prazosin from brain membranes; conditions: 3 μM test compound, 0.25 nM [3H]-prazosin, Wistar rat brain membranes, duplicate
Experimental: as §1

[6] = pH 6.9, 50 μM glutamate, read-out: Human pH 6.9 IC50
[7] = pH 7.4, 50 μM glutamate, read-out: Human pH 7.4 IC50

SMILES	hERG Binding % Displacement @ 10 μM [1] [%]	IC50 (GluN1/GluN2B receptors [2]) [nM]	remaining activity at 10 µM [3] [%]	remaining activity at 10 µM [4] [%]	Human pH Boost Ratio (IC50 pH 7.6/IC50 pH 6.9) (GluN1/GluN2B receptors [5])	IC50 (GluN1/GluN2B receptors [5]; [6]) [nM]	IC50 (GluN1/GluN2B receptors [5]; [7]) [nM]	α1-Adrenergic binding % Displacement @ 3 μM (α1-Adrenergic) [%]
O=C1CCc2cc(OCC3CCN(C(=O)Nc4ccc(Cl)cc4)CC3)ccc2N1 [Compound 13, N-(4-chlorophenyl)-4-(((2-oxo-1,2,3,4-tetrahydroquinolin-6-yl)oxy)methyl)piperidine-1-carboxamide]	37	339	105	106	2.0	283	468	16
O=C(Nc1ccc(Cl)c(Cl)c1)N1CCC(COc2ccc(O)cc2)CC1 [Compound 35, N-(3,4-dichlorophenyl)-4-((4-hydroxyphenoxy)methyl)-piperidine-1-carboxamide]			104	104	1.2	764		
O=C1CCc2cc(OCC3CN(C(=O)Nc4ccc(Cl)c(Cl)c4)C3)ccc2N1 [Compound 23, N-(3,4-dichlorophenyl)-3-(((2-oxo-1,2,3,4-tetrahydroquinolin-6-yl)oxy)methyl)azetidine-1-carboxamide]	60	53	94.6	87.6	3.0	19	41	25
O=C1CCc2cc(OCC3CN(C(=O)Nc4ccc(Cl)cc4)C3)ccc2N1 [Compound 21, N-(4-chlorophenyl)-3-(((2-oxo-1,2,3,4-tetrahydroquinolin-6-yl)oxy)methyl)azetidine-1-carboxamide]	25	166	102	89.2	1.7	103	170	2
O=C1CCc2cc(OCC3CN(C(=O)n4ccnc4)C3)ccc2N1 [Compound 26, 6-((1-(1H-imidazole-1-carbonyl)azetidin-3-yl)methoxy)-3,4-dihydroquinolin-2(1H)-one]	<1	6100	102	94.9		> 30000	> 10000	<1
O=C1CCc2cc(OCC3CN(C(=O)NCc4ccc(Cl)cc4)C3)ccc2N1 [Compound 28, N-(4-chlorobenzyl)-3-(((2-oxo-1,2,3,4-tetrahydroquinolin-6-yl)oxy)methyl)azetidine-1-carboxamide]	27	4900	102	94.5	3.5	2300	3500	12
O=C1CCc2cc(OCC3CCN(C(=O)Cc4ccc(Cl)cc4)CC3)ccc2N1 [Compound 15, 6-((1-(2-(4-chlorophenyl)acetyl)piperidin-4-yl)methoxy)-3,4-dihydroquinolin-2(1H)-one]	18	3200	96.3	101	8.6	490	2000	13
O=C(Nc1ccc(Cl)cc1)N1CCC(COc2ccc(O)cc2)CC1 [Compound 33]			111	104	1.8	740		
O=C1CCc2cc(OCC3CCN(C(=O)OCc4ccc(Cl)cc4)CC3)ccc2N1 [Compound 11, 4-chlorobenzyl 4-(((2-oxo-1,2,3,4-tetrahydroquinolin-6-yl)oxy)methyl)piperidine-1-carboxylate]	56	837	111	104	1.4	589	868	16
O=C1CCc2cc(OCC3CCN(C(=O)Nc4ccc(C(F)(F)F)cc4)CC3)ccc2N1 [Compound 17, 4-(((2-oxo-1,2,3,4-tetrahydroquinolin-6-yl)oxy)methyl)-N-(4-(trifluoromethyl)phenyl)piperidine-1-carboxamide]	75	359	98.7	93.9	2.0	237	517	7
O=C1CCc2cc(OCC3CCN(C(=O)/C=C/c4ccc(Cl)c(Cl)c4)CC3)ccc2N1 [Compound 6, (E)-6-((1-(3-(3,4-dichlorophenyl)acryloyl)piperidin-4-yl)methoxy)-3,4-dihydroquinolin-2(1H)-one]	85	1270	103	101	1.1	886	1640	28
